# Measurements taken from ChEMBL document CHEMBL1158980, “Bioactive neolignans from Endlicheria dysodantha” (J Nat Prod, 1991).
# Calls of active or inactive are those of the source. The calls are words filed in the database; no cut-off is given here.
# Columns and labels:
# HT-29 = experiment: Cytotoxicity against human HT-29 cells; format: functional; details: read-out: ED50 (the source's name)
# Artemia = experiment: Toxicity against brine shrimp; format: organism-based; details: in vivo
# [1] = system: Agrobacterium tumefaciens; experiment: Antitumor activity against Agrobacterium tumefaciens-induced crown gall tumor in potato tubers; format: functional
# A549 = experiment: Cytotoxicity against human A549 cells; format: functional; details: read-out: ED50 (the source's name)
# MCF7 = experiment: Cytotoxicity against human MCF7 cells; format: functional; details: read-out: ED50 (the source's name)
SMILES,EC50 (HT-29) [µg/mL],LC50 (Artemia) [ppm],inhibition [1],EC50 (A549) [µg/mL],EC50 (MCF7) [µg/mL],inhibition (INH) [1] [%]
C=CC[C@]12C=C(OC)C(=O)C=C1O[C@@H](c1cc(OC)c3c(c1)OCO3)[C@H]2C,96.5,162.1,inactive,> 100,79,–
COc1cccc2c1C(=O)c1c(O)c3c(c(O)c1C2=O)C[C@@](O)(C(=O)CO)C[C@@H]3O[C@H]1C[C@H](N)[C@H](O)[C@H](C)O1 [DOXORUBICIN],0.0344,4.05,–,0.0292,0.115,68.8
C=CC[C@@]12C[C@@H](OC)C(=O)C=C1O[C@@H](c1cc(OC)c3c(c1)OCO3)[C@H]2C [DYSODANTHIN A],2.39,47.53,–,4.23,5.51,32.2
C=CC[C@@]12C[C@@H](OC)C(=O)C=C1O[C@@H](c1cc(OC)c(OC)c(OC)c1)[C@H]2C [DYSODANTHIN B],2.76,334.2,–,3.68,4.09,52
C=CC[C@]1([C@H](C)[C@@H](OC(C)=O)c2cc(OC)c(OC)c(OC)c2)C[C@@H](OC)C=CC1=O [MEGAPHONE ACETATE],0.552,253.6,–,2.59,3.66,48.3
